Experimental data taken from the NIST ThermoML archive (doi:10.1016/j.fluid.2007.07.010).
± gives the expanded uncertainty stated by the source.

Conditions: Liquid, Ebulliometric method (Recirculating still)

vapor or sublimation pressure (273.15 K) [kPa]	vapor or sublimation pressure (283.15 K) [kPa]	vapor or sublimation pressure (293.15 K) [kPa]	vapor or sublimation pressure (303.15 K) [kPa]	vapor or sublimation pressure (313.15 K) [kPa]	vapor or sublimation pressure (323.15 K) [kPa]	SMILES
264 ± 2	372 ± 2	512 ± 3	689 ± 3	909 ± 4	1176 ± 5	CC(F)F [1,1-difluoroethane]
104 ± 2	150 ± 2	208 ± 2	284 ± 2	378 ± 3	495 ± 3	CCCC [butane]
